Data on ten compounds can be found in ChEMBL document CHEMBL1240342, “Molecular modeling studies of vascular endothelial growth factor receptor tyrosine kinase inhibitors using QSAR and docking” (J Mol Graph Model, 2009).

Vascular endothelial growth factor receptor 2, sequence (P35968 whole entry): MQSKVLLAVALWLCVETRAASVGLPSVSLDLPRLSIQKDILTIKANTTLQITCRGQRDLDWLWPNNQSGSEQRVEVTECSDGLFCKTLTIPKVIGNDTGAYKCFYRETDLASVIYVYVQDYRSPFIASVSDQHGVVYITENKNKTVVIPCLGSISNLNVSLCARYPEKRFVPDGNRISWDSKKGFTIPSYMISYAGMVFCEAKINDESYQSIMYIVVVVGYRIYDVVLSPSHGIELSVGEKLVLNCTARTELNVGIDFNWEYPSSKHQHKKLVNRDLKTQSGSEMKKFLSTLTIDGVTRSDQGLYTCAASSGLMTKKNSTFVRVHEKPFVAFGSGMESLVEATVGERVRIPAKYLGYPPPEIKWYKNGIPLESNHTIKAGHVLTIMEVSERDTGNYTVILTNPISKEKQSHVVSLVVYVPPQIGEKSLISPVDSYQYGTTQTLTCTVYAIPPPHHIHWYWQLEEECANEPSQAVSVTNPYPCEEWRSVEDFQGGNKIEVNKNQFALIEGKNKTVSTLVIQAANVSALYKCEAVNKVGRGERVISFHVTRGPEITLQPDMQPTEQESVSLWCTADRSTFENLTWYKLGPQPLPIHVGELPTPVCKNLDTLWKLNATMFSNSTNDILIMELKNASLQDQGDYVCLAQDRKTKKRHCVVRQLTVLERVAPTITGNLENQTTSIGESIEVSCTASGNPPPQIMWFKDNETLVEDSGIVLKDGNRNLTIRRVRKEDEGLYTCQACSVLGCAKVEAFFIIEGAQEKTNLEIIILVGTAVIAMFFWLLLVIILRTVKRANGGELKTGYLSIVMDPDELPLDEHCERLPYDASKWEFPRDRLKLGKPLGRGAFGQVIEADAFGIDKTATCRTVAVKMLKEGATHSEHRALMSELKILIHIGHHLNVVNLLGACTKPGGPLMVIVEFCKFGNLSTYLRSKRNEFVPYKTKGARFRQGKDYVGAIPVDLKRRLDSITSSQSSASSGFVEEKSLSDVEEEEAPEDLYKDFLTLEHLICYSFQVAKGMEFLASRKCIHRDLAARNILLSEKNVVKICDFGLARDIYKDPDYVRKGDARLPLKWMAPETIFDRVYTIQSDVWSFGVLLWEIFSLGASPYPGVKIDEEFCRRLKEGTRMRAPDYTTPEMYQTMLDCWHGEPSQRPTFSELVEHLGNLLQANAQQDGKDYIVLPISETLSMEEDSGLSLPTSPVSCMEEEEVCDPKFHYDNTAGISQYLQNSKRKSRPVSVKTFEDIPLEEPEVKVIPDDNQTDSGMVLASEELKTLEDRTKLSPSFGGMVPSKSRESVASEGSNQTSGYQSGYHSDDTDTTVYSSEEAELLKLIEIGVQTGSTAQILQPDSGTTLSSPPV

The assay has as its target Vascular endothelial growth factor receptor 2 (Homo sapiens, UniProt P35968). Briefly: Inhibition of human VEGFR2 after 60 mins.
`COc1cc2nccc(Oc3ccc4c(C(N)=O)cccc4c3)c2cc1C(C)=O`: it took 1.2 nM to reach half-maximal inhibition (IC50).
Regarding `COc1cc2nccc(Oc3ccc4c(C(=O)NC5CC5)cccc4c3)c2cc1C(C)=O`, the midpoint of inhibition, the IC50, lay at 0.372 nM.
Take `COCCNC(=O)c1cccc2cc(Oc3ccnc4cc(OC)c(C(C)=O)cc34)ccc12`: the midpoint of inhibition, the IC50, lay at 21.9 nM.
To `COc1cc2nccc(Oc3ccc4c(C(=O)Nc5ccc(Cl)cc5)cccc4c3)c2cc1C(C)=O` belongs 0.2 nM; to `COc1cc2nccc(Oc3ccc4c(c3)OCCN4C(=O)Nc3ccc(Cl)cc3)c2cc1C(C)=O`, 0.603 nM; to `COc1cc2nccc(Oc3ccc4c(c3)OCCN4C(=O)Nc3ccc(C)cc3)c2cc1C(C)=O`, 0.501 nM.
Take `COc1cc2nccc(Oc3ccc4c(C(=O)NCC(F)F)cccc4c3)c2cc1OC`: the midpoint of inhibition, the IC50, lay at 3.8 nM.
For `COc1cc2nccc(Oc3ccc4c(C(=O)NC5CCC5)cccc4c3)c2cc1OC` the value was 2.14 nM.
For `COc1cc2nccc(Oc3ccc4c(C(=O)NC(C)C)cccc4c3)c2cc1OC` the value was 5.5 nM; for `COc1cc2nccc(Oc3ccc4c(C(=O)NC5CCCC5)cccc4c3)c2cc1OC`, 12 nM.
